Experiments:
[1] = Solubility in water (descriptive); format: physicochemical
Psoroptes cuniculi = assay: Acaricidal activity on isolated mites; format: in vivo
Procedure: Die akarizide Aktivität der Stoffe wird an isolierten Milben Psoroptes cuniculi als Erreger der Psoroptesräude bei Kaninchen geprüft. Von frischen Verkrustungen von Kaninchen mit Psoroptesräude, werden zu diesem Zweck 50 Milbenexemplare (Larven, Nymphen, Imago) gewählt und in Petri-Schalen auf ein Filterpapierblatt übertragen. Dann bringt man auf Milben und die ganze Blattoberfläche 1,5 ml zu prüfende wäßrige Stofflösung in destilliertem Wasser auf. Die Schale wird mit Deckel verschlossen und in einen Thermostat bei 30 °C und Feuchtegehalt von 90 % angeordnet. Der Wirkstoff wird als wäßrige Lösung mit einer zwischen 0,0039 und 4 % liegenden Konzentration genommen. Als Vergleichsmuster dient gleichzeitig eine wäßrige Lösung von Chlorophos. Milben werden im Kontrollversuch (Kontrolle auf Lebensfähigkeit)mit 1,5 ml physiologischer Lösung behandelt und in einen anderen Thermostat unter gleichen Temperatur- und Feuchtigkeitsbedingungen aufgestellt.
Nach 1, 2, 4, 6 Stunden und alle 24 Stunden betrachtet man die Milben im Mikroskop und zählt die toten Milben. Aufgrund der Milbenvernichtung durch einen 24-stündigen Kontakt mit dem Wirkstoff ermittelt man die LK-50 Werte. Die Versuche werden 5mal wiederholt. Arithmetische Mittelwerte gibt Tabelle 14 an.

[2] = Storage stability (descriptive); format: physicochemical
Fusarium sambucinum = assay: Mycelial growth inhibition on agar (contact activity); format: cell-based; settings: concentration not given
Procedure: (§1) Die Prüfungen werden nach dem Verfahren zur Ermittlung der Kontaktaktivität durchgeführt. Man verwendet das in Wasser gelöste Kalium-N-(vinyloxyäthyl)dithiocarbamat, führt es in ein Nährmedium ein und vergießt auf Petri-Schalen. Nach 24 Stunden wird mit Pilzmyzelium nach einem Stichverfahren geimpft. Dann temperiert man die Schalen innerhalb von 5 Tagen bei einer zwischen 24 und 26 °C liegenden Temperatur und mißt den Durchmesser von Pilzkolonien, ermittelt den Prozentsatz der Hemmung des Myzelwachstums (S) ausgehend von Angaben am 5. Tag nach der Abbott-Formel [drawing 13] worin dc für den Durchmesser der Pilzkolonien, de für den Durchmesser von Pilzkolonien in der Schale stehen, wo ein die zu prüfenden Stoffe enthaltendes Medium vorhanden ist. Dieses Verfahren zur Ermittlung der mikrobiologischen Aktivität ist in anderen Beispielen verwendet.
(§2) Tabelle 2 zeigt die Angaben für die fungizide Aktivität von Kalium-N-(vinyloxyäthyl)dithiocarbamat und bekannten wirksamen Fungiziden Poly arbazin und TMTD. Der zu prüfende Stoff wurde im Laufe der Versuche in Wasser aufgelöst, und die Kulturen wurden auf einem Kartoffel-Glukose-Nährmedium gezüchtet.

Fusarium moniliforme = assay: as above; format: cell-based; settings: concentration not given
Procedure: as §1, §2

Walrotiela subiculesa = assay: as above; format: cell-based
Procedure: as §1
(§3) Die Pilzkulturen werden auf Würzeagar gezüchtet. Ergebnisse, erhalten bei der Prüfung der fungiziden Aktivität gegen reine Kulturen von Mikroorganismen, welche Bioschädigungen hervorrufen, sind in der Tabelle 1 dargestellt.

Acremonium cowum [3] = assay: as above; format: cell-based; settings: Würzeagar
Procedure: as §1, §3

Penicillium charlesii = assay: as above; format: cell-based
Procedure: as §1, §3

Acremonium charticola [4] = assay: as above; format: cell-based; settings: Würzeagar
Procedure: as §1, §3

Oidium Sp. = assay: as above; format: cell-based; settings: Würzeagar
Procedure: as §1, §3

Cladosporium resinae [5] = assay: as above; format: cell-based; settings: Würzeagar
Procedure: as §1, §3

Penicillium chrysogenum = assay: as above; format: cell-based
Procedure: as §1, §3

Geotrichum candidum Link = assay: as above; format: cell-based
Procedure: as §1, §3

[6] = system: Cladosporium cladosporioides; assay: as above; format: cell-based; settings: Würzeagar
Procedure: as §1, §3

[7] = Acute toxicity (LD50) in mice; format: in vivo, weißen Mäusen; settings: mouse, in vivo, ip; intraabdominale Applikation an weißen Mäusen; read-out: LD50
Aspergillus niger = assay: Mycelial growth inhibition on agar (contact activity); format: cell-based; settings: concentration not given
Sphaeropsis malorum = assay: as above; format: cell-based; settings: concentration not given
Procedure: as §1
(§4) Als Nährmedium dient Würzeagar.

Rhizoctonia solani = assay: as above; format: cell-based; settings: concentration not given
Procedure: as §1
Die fungizide Aktivität von Zink-bis-(N-vinyloxyäthyldithiocarbamat) gegen reine Kulturen von Pilzen Fusarium moniliforme, Fusarium sambucinum, Aspergillus niger, Rhizoctonia solani, Cladosporium resinae, Cladosporium cladosporioides, Acremonium cowum, Acremonium charticola, Penicillium chrysogenum, Penicillium charlesii Smith, Penicillium funiculosum, Geotrichum candidum Link, Walrotiela subiculesa, Oidium sp., Paecilomyces varioti, Stereum hirsutum wird gemäß Beispiel 8 untersucht.
as §4

Xantomonas malvacearum = assay: Bacterial growth inhibition; format: cell-based; settings: concentration not given
[8] = system: Cladosporium cladosporioides; assay: Mycelial growth inhibition on agar (contact activity); format: cell-based; settings: Tabelle 11
Pseudomonas = assay: Bactericidal activity on agar (concentration of complete growth inhibition); format: cell-based; settings: % bezogen auf den Wirkstoff; am 5. Tag
Procedure: (§5) Geprüft wird die bakterizide Aktivität von Kalium-, Natrium-, Zink- und Kupfersalzen der N-(Vinyloxyäthyl)dithiocarbamidsäure gegen Bakterien der Gattungen Bacillus, Micrococcus, Pseudomonas, Escherichia und Xantomonas.
(§6) Man stellt wäßrige Stofflösungen verschiedener Konzentration her, die so berechnet werden, daß die Stoffkonzentration in der Petri-Schale bei der Gabe von 1 ml Lösung in das geschmolzene Nährmedium (45 bis 50 °C) zwischen 0,003 und 25 % (bezogen auf den Wirkstoff) schwankt. Nach 18 bis 24 Stunden bringt man auf die Oberfläche des Nährmediums 0,1 ml wäßrige Suspension eintägiger reiner Kulturen von Bakterien auf und verteilt sie gleichmäßig. In Kontrollschalen verteilt sich 0,1 ml Wasser über die Oberfläche des Nährmediums. Die Inkubation erfolgt bei 37 °C innerhalb von 5 Tagen. Die Wirksamkeit der Stoffe wird nach dem Auftreten des Bakterienwachstums auf der Oberfläche des Nährmediums eingeschätzt. Die Prüfergebnisse sind in der Tabelle 13 dargestellt.

Bacillus = assay: as above; format: cell-based; settings: % bezogen auf den Wirkstoff; am 5. Tag
Procedure: as §5, §6

Micrococcus = assay: as above; format: cell-based; settings: % bezogen auf den Wirkstoff; am 5. Tag
Procedure: as §5, §6

Escherichia = assay: as above; format: cell-based; settings: % bezogen auf den Wirkstoff; am 5. Tag
Procedure: as §5, §6

Xantomonas = assay: as above; format: cell-based; settings: % bezogen auf den Wirkstoff; am 5. Tag
Procedure: as §5, §6

Cladosporium resinae [9] = assay: Mycelial growth inhibition on agar (contact activity); format: cell-based; settings: Tabelle 11
Acremonium charticola [10] = assay: as above; format: cell-based; settings: Tabelle 11
Acremonium cowum [11] = assay: as above; format: cell-based; settings: Tabelle 11
[12] = Präparatkonzentration 0,0015 %, Würzeagar
[13] = Präparatkonzentration 0,003 %, Würzeagar
[14] = Präparatkonzentration 0,006 %, Würzeagar
[15] = Präparatkonzentration 0,012 %, Würzeagar
[16] = Konzentration des Präparats 0,01 %
[17] = Konzentration des Präparats 0,02 %
[18] = Konzentration des Präparats 0,05 %
[19] = Konzentration des Präparats 0,10 %
[20] = Konzentration des Präparats 0,005 %
[21] = Konzentration des Präparats 0,01 %, Tabelle 11
[22] = Konzentration des Präparats 0,02 %, Tabelle 11
[23] = Konzentration des Präparats 0,05 %, Tabelle 11
[24] = Konzentration des Präparats 0,10 %, Tabelle 11
[25] = Konzentration des Präparats 0,005 %, Tabelle 11

C=COCCNC(=S)S [Natrium-N-(vinyloxyäthyl)dithiocarbamat]
Löslichkeit in Wasser [1]: gut | LK-50 % (Psoroptes cuniculi; 24-stündiger Kontakt mit dem Wirkstoff): 0,0022% | Vernichtung von 100 % der Milben nach Stunden (Psoroptes cuniculi; Konzentration 0,0039 %): 48 Stunden | Vernichtung von 100 % der Milben nach Stunden (Psoroptes cuniculi; Konzentration 0,0078 %): 24 Stunden | Vernichtung von 100 % der Milben nach Stunden (Psoroptes cuniculi; Konzentration 0,0625 bis 0,125 %): 6 Stunden | Vernichtung von 100 % der Milben nach Stunden (Psoroptes cuniculi; Konzentration 0,125 bis 0,5 %): 4 Stunden | selektive Toxizität gegen Räudemilben, dem Chlorophos überlegen (Psoroptes cuniculi; gegenüber Chlorophos): ~400 mal | Lagerbeständigkeit [2]: lagerbeständig | unterdrückt das Wachstum des Myzeliums der Pilze (Fusarium sambucinum): 100% | unterdrückt das Wachstum des Myzeliums der Pilze (Fusarium moniliforme): 100% | Myzelhemmung in % (Walrotiela subiculesa; [12]): 100% | Myzelhemmung in % (Walrotiela subiculesa; [13]): 100% | Myzelhemmung in % (Walrotiela subiculesa; [14]): 100% | Myzelhemmung in % (Walrotiela subiculesa; [15]): 100% | Myzelhemmung in % (Acremonium cowum [3]; Präparatkonzentration 0,0015 %): 100% | Myzelhemmung in % (Acremonium cowum [3]; Präparatkonzentration 0,003 %): 100% | Myzelhemmung in % (Acremonium cowum [3]; Präparatkonzentration 0,006 %): 100% | Myzelhemmung in % (Acremonium cowum [3]; Präparatkonzentration 0,012 %): 100% | Myzelhemmung in % (Penicillium charlesii; [12]): 25% | Myzelhemmung in % (Penicillium charlesii; [13]): 40% | Myzelhemmung in % (Penicillium charlesii; [14]): 90% | Myzelhemmung in % (Penicillium charlesii; [15]): 100% | Myzelhemmung in % (Acremonium charticola [4]; Präparatkonzentration 0,0015 %): 100% | Myzelhemmung in % (Acremonium charticola [4]; Präparatkonzentration 0,003 %): 100% | Myzelhemmung in % (Acremonium charticola [4]; Präparatkonzentration 0,006 %): 100% | Myzelhemmung in % (Acremonium charticola [4]; Präparatkonzentration 0,012 %): 100% | Myzelhemmung in % (Oidium Sp.; Präparatkonzentration 0,0015 %): 60% | Myzelhemmung in % (Oidium Sp.; Präparatkonzentration 0,003 %): 100% | Myzelhemmung in % (Oidium Sp.; Präparatkonzentration 0,006 %): 100% | Myzelhemmung in % (Oidium Sp.; Präparatkonzentration 0,012 %): 100% | Myzelhemmung in % (Cladosporium resinae [5]; Präparatkonzentration 0,0015 %): 90% | Myzelhemmung in % (Cladosporium resinae [5]; Präparatkonzentration 0,003 %): 100% | Myzelhemmung in % (Cladosporium resinae [5]; Präparatkonzentration 0,006 %): 100% | Myzelhemmung in % (Cladosporium resinae [5]; Präparatkonzentration 0,012 %): 100% | Myzelhemmung in % (Penicillium chrysogenum; [12]): 5% | Myzelhemmung in % (Penicillium chrysogenum; [13]): 20% | Myzelhemmung in % (Penicillium chrysogenum; [14]): 80% | Myzelhemmung in % (Penicillium chrysogenum; [15]): 100% | Myzelhemmung in % (Geotrichum candidum Link; [12]): 5% | Myzelhemmung in % (Geotrichum candidum Link; [13]): 40% | Myzelhemmung in % (Geotrichum candidum Link; [14]): 75% | Myzelhemmung in % (Geotrichum candidum Link; [15]): 100% | Myzelhemmung in % ([6]; Präparatkonzentration 0,0015 %): 100% | Myzelhemmung in % ([6]; Präparatkonzentration 0,003 %): 100% | Myzelhemmung in % ([6]; Präparatkonzentration 0,006 %): 100% | Myzelhemmung in % ([6]; Präparatkonzentration 0,012 %): 100% | LD50 [7]: 260 mg/kg | unterdrückt das Wachstum des Myzeliums der Pilze (Aspergillus niger): 100% | unterdrückt das Wachstum des Myzeliums der Pilze (Sphaeropsis malorum): 100% | unterdrückt das Wachstum des Myzeliums der Pilze (Rhizoctonia solani): 100% | unterdrückt das Wachstum von Bakterien (Xantomonas malvacearum): 33%

Kupfer-bis-(N-vinyloxyäthyldithiocarbamat)
Löslichkeit in Wasser [1]: unlöslich | Lagerbeständigkeit [2]: lagerbeständig | Myzelhemmung in % [8, 16]: 36% | Myzelhemmung in % [8, 17]: 65% | Myzelhemmung in % [8, 18]: 80% | Myzelhemmung in % [8, 19]: 100% | Myzelhemmung in % [8, 20]: 15% | Myzelhemmung in % (Walrotiela subiculesa; [21]): 0% | Myzelhemmung in % (Walrotiela subiculesa; [22]): 10% | Myzelhemmung in % (Walrotiela subiculesa; [23]): 37% | Myzelhemmung in % (Walrotiela subiculesa; [24]): 100% | Myzelhemmung in % (Walrotiela subiculesa; [25]): 0% | Myzelhemmung in % (Penicillium charlesii; [21]): 30% | Myzelhemmung in % (Penicillium charlesii; [22]): 80% | Myzelhemmung in % (Penicillium charlesii; [23]): 100% | Myzelhemmung in % (Penicillium charlesii; [24]): 100% | Myzelhemmung in % (Penicillium charlesii; [25]): 15% | Myzelhemmung in % (Penicillium chrysogenum; [21]): 25% | Myzelhemmung in % (Penicillium chrysogenum; [22]): 36% | Myzelhemmung in % (Penicillium chrysogenum; [23]): 70% | Myzelhemmung in % (Penicillium chrysogenum; [24]): 100% | Myzelhemmung in % (Penicillium chrysogenum; [25]): 10% | Myzelhemmung in % (Geotrichum candidum Link; [21]): 100% | Myzelhemmung in % (Geotrichum candidum Link; [22]): 100% | Myzelhemmung in % (Geotrichum candidum Link; [23]): 100% | Myzelhemmung in % (Geotrichum candidum Link; [24]): 100% | Myzelhemmung in % (Geotrichum candidum Link; [25]): 100% | Konzentrationen, welche das Bakterienwachstum völlig (100 %) hemmen (Pseudomonas): 0,15% | Konzentrationen, welche das Bakterienwachstum völlig (100 %) hemmen (Bacillus): 0,15% | Konzentrationen, welche das Bakterienwachstum völlig (100 %) hemmen (Micrococcus): 0,15% | Konzentrationen, welche das Bakterienwachstum völlig (100 %) hemmen (Escherichia): 0,15% | Konzentrationen, welche das Bakterienwachstum völlig (100 %) hemmen (Xantomonas): 0,15% | Myzelhemmung in % (Cladosporium resinae [9]; [16]): 50% | Myzelhemmung in % (Cladosporium resinae [9]; [17]): 80% | Myzelhemmung in % (Cladosporium resinae [9]; [18]): 90% | Myzelhemmung in % (Cladosporium resinae [9]; [19]): 100% | Myzelhemmung in % (Cladosporium resinae [9]; [20]): 34% | Myzelhemmung in % (Acremonium charticola [10]; [16]): 96% | Myzelhemmung in % (Acremonium charticola [10]; [17]): 100% | Myzelhemmung in % (Acremonium charticola [10]; [18]): 100% | Myzelhemmung in % (Acremonium charticola [10]; [19]): 100% | Myzelhemmung in % (Acremonium charticola [10]; [20]): 70% | Myzelhemmung in % (Acremonium cowum [11]; [16]): 100% | Myzelhemmung in % (Acremonium cowum [11]; [17]): 100% | Myzelhemmung in % (Acremonium cowum [11]; [18]): 100% | Myzelhemmung in % (Acremonium cowum [11]; [19]): 100% | Myzelhemmung in % (Acremonium cowum [11]; [20]): 100%

— patent EP0252983B1, “SALTS OF N-(VINYLOXIETHYL)DITHIOCARBAMIC ACID, METHOD OF OBTAINING THEREOF AND […] ON THEM” (priority 1985, dated 1987)
